Assay results from patent publication US9133165B2, “Sulfonic acid salts of heterocyclylamide-substituted imidazoles” (AICURIS GMBH & CO. KG, priority 2011, dated 2015).
In brackets after ≈: the same amount, converted by molar mass. Like-named read-outs stand apart in the source and are kept apart here.

Tests used:
HCMV AD 169 RV-HG = experiment: HCMV fluorescence reduction test; type: cell-based, human cytomegalovirus
Experimental: The test compounds are used as 50 millimolar (mM) solutions in dimethyl sulfoxide (DMSO). As reference compounds, e.g., Ganciclovir®, Foscarnet®, Cidofovir® or else the compound of Example 9A can be used. One day before the start of the test, 1.5×10^4 human foreskin fibroblasts (NHDF cells)/well are sowed in 200 μl of cell culture medium in the wells B2-G11 of 96-well plates (black with a translucent bottom). The wells at the edge position of each 96-well plate are filled only with 200 μl of medium to avoid edge effects. On the day of the test, the cell culture medium is suctioned off from the wells B2-G11 of each 96-well plate and replaced by 100 μl of virus suspension (multiplicity of infection (MOI): 0.1-0.2). The virus that is used is a recombinant HCMV, which has integrated an expression cassette for the green fluorescence protein (GFP) in the virus genome (HCMV AD 169 RV-HG, E. M. Borst, K. Wagner, A. Binz, B. Sodeik, and M. Messerle, 2008, J. Virol. 82: 2065-2078). After an incubation time of 2 hours at 37° C. and 5% CO2, the virus inoculate is suctioned off, and all wells except for the wells in Column 3 are filled with 200 μl of cell culture medium. Column 2 is not further treated and serves as a virus control. The wells in Column 3 are filled in each case in double determination with 300 μl of test substance (diluted in cell culture medium). The concentration of the respective antiviral substance in Column 3 is ˜ the 27× concentration of the EC50 value that is expected in each case. The test substance in Column 3 is diluted in 8 steps 1:3 over the 96-well plate by in each case 100 μl of a column being transferred into the right column in each case—and being mixed there with the existing 200 μl of cell culture medium. […] Then, the GFP intensity of each well of a 96-well plate is determined by means of a fluorescence reading device (FluoBox; Bayer Technology Services GmbH; Filter settings: GFP, Ex 480 nm, Em 520 nm). The EC50 of an anti-HCMV substance can be determined from the thus obtained measurement values: […]

[1] = Solubility studies in H2O; type: physicochemical; conditions: water, thermodynamic from solid, 20 mg in 1 ml of H2O, stirred overnight at 25° C., filtrate analyzed by HPLC
Experimental: 1 ml of H2O each is added, and the HPLC glasses are sealed. The suspensions that are produced are stirred overnight at 25° C. To estimate the amount of dissolved substance, the suspensions are filtered via pipette microfilters, and the filtrates that are obtained are diluted 1:4 and analyzed by means of HPLC. The HPLC analysis was carried out on a […] Luna RP18 (100A)-column with the following dimensions: 5 μm 50×4.6 mm with use of an isocratic mixture of acetonitrile and H2O+0.1% TFA in the ratio 3:7.

[2] = Solubility under simulated conditions in the human stomach; type: physicochemical; conditions: aqueous sodium chloride solution (0.2% by weight), pH 1.2 with hydrochloric acid, stirred for 5 hours
Experimental: The samples were then treated as described above, and the amount of free base in solution is determined by means of HPLC.

Hygroscopy = type: physicochemical; conditions: approximately 46% relative atmospheric humidity and 24° C., storage time approximately 2 days
Experimental: By storing the salt of Example 1 in pure form at approximately 46% relative atmospheric humidity and 24° C., the hygroscopy of the salts according to the invention was measured.

[3] = Human betaherpesvirus 5, AD169, NHDF, 168 h, read-out: EC50 (GFP-RA), virus strain AD169 RV-HG in NHDF cells, 7 days, GFP fluorescence

Row | Structure (SMILES) | EC50 (HCMV AD 169 RV-HG; [3]) [nM] | solubility [1] [µg/mL] | Amount of Dissolved Free Base [2] [mg/mL] | weight increase (hygroscopy) (Hygroscopy) | EC50 (HCMV AD 169 RV-HG; read-out: EC50 (GFP-RA), virus strain AD169 RV-HG in NHDF cells, 7 days, GFP fluorescence, dimesylate) [nM]
1 | Nc1nc(O)c2ncn(COC(CO)CO)c2n1 [Ganciclovir, reference compound] | 3200 | – | – | – | –
2 | Cc1ccc(N2CCN(C(=O)c3nc(NC(=O)Nc4ccc(OC(F)(F)F)cc4)cn3C)CC2)nc1 [Example 9A, N-(1-Methyl-2-{[4-(5-methylpyridin-2-yl)piperazin-1-yl]carbonyl}-1H-imidazol-4-yl)-N′-[4-(trifluoromethoxy)phenyl]urea] | 1.5 | 4 (≈ 7.94 µM) | 0.065 | – | –
3 | CS(=O)(=O)O.CS(=O)(=O)O.Cc1ccc(N2CCN(C(=O)c3nc(NC(=O)Nc4ccc(OC(F)(F)F)cc4)cn3C)CC2)nc1 [Example 1, N-(1-Methyl-2-{[4-(5-methylpyridin-2-yl)piperazin-1-yl]-carbonyl}-1H-imidazol-4-yl)-N′-[4-trifluoromethoxyphenyl]urea dimesylate] | – | > 9700 | 0.103 | less than 0.11% | 1.8
